In PubChem BioAssay (NCI):
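Dose response: 5 concentrations. Exposure: 48 h. Format: 96-well plates. Endpoint: linear interpolation; highest concentration if not reached. GI50 = concentration required for 50% inhibition of growth. TGI marks complete inhibition of growth.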

Tests used:
Experiment in all cases: NCI-60 cell line screen, 48 h
A549 NSCLC = tested on: A549 NSCLC
SW-620 colon = tested on: SW-620 colon
TK-10 renal = tested on: TK-10 renal
SK-OV-3 ovarian = tested on: SK-OV-3 ovarian
HOP-62 NSCLC = tested on: HOP-62 NSCLC
SR leukemia = tested on: SR leukemia
HCT-15 colon = tested on: HCT-15 colon
OVCAR-4 ovarian = tested on: OVCAR-4 ovarian
DU-145 prostate = tested on: DU-145 prostate
OVCAR-5 ovarian = tested on: OVCAR-5 ovarian

Structure (SMILES) | GI50 (A549 NSCLC) [µM] | TGI (A549 NSCLC) [µM] | GI50 (SW-620 colon) [µM] | TGI (SW-620 colon) [µM] | GI50 (TK-10 renal) [µM] | TGI (TK-10 renal) [µM] | GI50 (SK-OV-3 ovarian) [µM] | TGI (SK-OV-3 ovarian) [µM] | GI50 (HOP-62 NSCLC) [µM] | TGI (HOP-62 NSCLC) [µM] | GI50 (SR leukemia) [µM] | TGI (SR leukemia) [µM] | GI50 (HCT-15 colon) [µM] | TGI (HCT-15 colon) [µM] | GI50 (OVCAR-4 ovarian) [µM] | TGI (OVCAR-4 ovarian) [µM] | GI50 (DU-145 prostate) [µM] | TGI (DU-145 prostate) [µM] | GI50 (OVCAR-5 ovarian) [µM] | TGI (OVCAR-5 ovarian) [µM]
O=P1(S)OC[C@H]2O[C@@H]3[C@H](F)[C@@H]2OP(O)(=S)OC[C@H]2O[C@H]([C@H](F)[C@@H]2O1)n1cnc2c(ncnc21)NC/C=C/CNc1ncnc2c1ncn23 (stereo not given in full) | > 100 | > 100 | > 100 | > 100 | > 100 | > 100 | 5.08 | > 100 | > 100 | > 100 | 0.239 | > 100 | > 100 | > 100 | 5.36 | > 100 | > 100 | > 100 | > 44.1 | > 100
Cc1nc(Nc2cccnc2)sc1C(=O)/C=C/c1ccc(Cl)cc1 | 3.32 | > 100 | 2.08 | 4.75 | 3.53 | 12.1 | 3.88 | > 100 | 2.56 | 7.6 | 2.3 | > 100 | 1.59 | 4.03 | 5.14 | > 100 | 3.57 | 19.8 | 2.87 | 31.2
CCN(c1cc(-c2ccc(CN3CCOCC3)cc2)cc(C(=O)NCc2c(C)cc(C)[nH]c2=O)c1C)C1CCOCC1 | 33.5 | > 100 | 20.7 | 52.4 | 25.2 | > 73.6 | 52.9 | > 100 | 30.7 | 99.2 | 21.7 | 58.2 | 19.2 | 48.4 | 25.9 | 97.2 | 40.6 | > 100 | 37.7 | > 82.5
C1CC[N-]CC1.CC(=N\O)/C(C)=N/O.CC(=N\O)/C(C)=N/O.OC1[CH-]CCCC1.[Co+2] | 58.5 | > 100 | 31.6 | > 100 | 39.8 | > 100 | > 100 | > 100 | > 100 | > 100 | 20.5 | 62.6 | 65.5 | > 100 | 72.7 | > 100 | 69.1 | > 100 | > 100 | > 100
COC(=O)COc1ccc(/C=C2/N=C(c3ccccc3)N(c3c(C)n(C)n(-c4ccccc4)c3=O)C2=O)cc1 | > 100 | > 100 | 22 | 50.6 | 18.5 | 34.1 | 17.3 | 37.9 | 31.7 | 97.7 | 23.1 | 69.3 | 66.5 | > 100 | 26.5 | 70.9 | 16.6 | 30.2 | 62.4 | > 100
CN(C)CCSS(=O)(=O)O | – | > 100 | – | > 100 | – | > 100 | – | > 100 | – | > 100 | – | > 100 | – | > 100 | – | > 100 | – | > 100 | – | > 100
COc1cc2c(cc1OC)C(=O)/C(=C/c1cc(-c3ccc4c(c3)OCO4)n[nH]1)C2 | 1.96 | 5.45 | 1.35 | 3.47 | 1.89 | 3.36 | 2.89 | 7.16 | 1.53 | 2.96 | 0.627 | 4.11 | 1.12 | 2.81 | 1.11 | 2.36 | 1.45 | 2.86 | 1.56 | 3
O=C1/C(=C/c2ccccc2)CN(C(=O)CCN2CCCC2)C/C1=C\c1ccccc1 | – | 14.6 | – | 0.511 | – | 8.62 | – | 20.5 | – | 16 | – | 1.07 | – | 3.97 | – | 4.78 | – | 18.1 | – | 7.7
O=C1CC(c2[nH]nc3ccccc23)C(=O)N1c1ccccc1 (stereo not given) | – | > 100 | – | > 100 | – | > 100 | – | > 100 | – | > 100 | – | > 100 | – | > 100 | – | > 100 | – | > 100 | – | > 100
Cc1c2cc(Cl)c3ccccc3c2c[n+]2ccccc12 | 8.54 | > 100 | 3.74 | 24.2 | 23.1 | > 100 | 10.3 | 53.5 | 2.24 | 16.1 | 2.4 | 15.2 | 41.8 | > 100 | 2.71 | 17.5 | 12.8 | 31.6 | 29.7 | > 100
C#Cc1nc2ccccc2c(=O)[nH]1 | 2.96 | 12.9 | 0.291 | 1.12 | 0.546 | 11.2 | 6.54 | 40.1 | 1.95 | 5.64 | 0.311 | 2.6 | 0.224 | 0.644 | 1.38 | 2.79 | 1.63 | 8.25 | 1.04 | 2.59
Cc1c2c(c(C)c3c4c(oc13)CCCC4)C=NCC2 | – | 32.4 | – | 59.3 | – | 25.4 | – | 38.1 | – | 60.6 | – | 23.4 | – | 34.4 | – | 54.8 | – | 28.5 | – | 32.1
